Structures can show the parent of a compound that is named as a salt. A value given as a limit tells only on which side of the number the result lay.

Common to all, as to format: cell-based
For assay [1], the target named is T1, NMDA receptor subunits 1A/2A (Rattus norvegicus, UniProt P35439+Q00959).
T1 construct: expressed in transfected cells; host or cells: Xenopus laevis oocytes (cRNA injection; clones from Dr. P. H. Seeburg)
Description: Electrophysiological assay at NMDA receptor subunits expressed in Xenopus oocytes, 1A/2A. To be noted: glutamate 100 μm and glycine 1-100 μm. How it is done:
(§1) Many of the properties of native NMDA receptors are seen in recombinant homomeric NR1 receptors. These properties are altered by the NR2 subunits. Recombinant NMDA receptors expressed in Xenopus oocytes have been studied by voltage-clamp recording, as has developmental and regional expression of the mRNAs encoding NMDA receptor subunits. Electrophysiological assays were utilized to characterize the actions of compounds at NMDA receptors expressed in Xenopus oocytes. The compounds were assayed at four subunit combinations of cloned rat NMDA receptors, corresponding to three putative NMDA receptor subtypes [Moriyoshi, et al. Nature 1991, 354, 31-37; Monyer et al, Science 1992, 256, 1217-1221; Kutsuwada et al, Nature 1992, 358, 36-41; Sugihara et al, Biochem. Biophys Res. Commun. 1992, 185, 826-832].
(§2) Electrophysiological Assays at NMDA Receptor Subunits
(§3) Preparation of RNA. cDNA clones encoding the NR1A, NR2A, NR2B, NR2C and NR2D rat NMDA receptor subtypes were provided by Dr. P. H. Seeburg (see, Moriyoshi et al., Nature (Lond.) 354:31-37 (1991); Kutsuwada et al., Nature (Lond.) 358:36-41 (1992) Monyer et al., Science (Washington, D.C.) 256:1217-1221 (1992); Ikeda et al., FEBS Lett. 313:34-38 (1992); Ishii et al., J. Biol. Chem. 268:2836-2843 (1993) for details of these clones or their mouse homologs). The clones were transformed into appropriate host bacteria and plasmid preparations were made with conventional DNA purification techniques. A sample of each clone was linearized by restriction enzyme digestion and cRNA was synthesized with T3 RNA polymerase. The cRNA was diluted to 400 ng/μl and stored in 1 μl aliquots at -80° C. until injection.
(§4) The Xenopus oocyte expression system. Mature female Xenopus laevis were anaesthetized (20-40 min) using 0.15% 3-aminobenzoic acid ethyl ester (MS-222) and 2-4 ovarian lobes were surgically removed. Oocytes at developmental stages IV-VI (Dumont, J. N., J. Morphol. 136:153-180 (1972)), were dissected from the ovary still surrounded by enveloping ovarian tissues. Follicle-enclosed oocytes were micro-injected with 1:1 mixtures of cRNA:NR1A+NR2A, 2B, 2C or 2D; injecting ~2,5, or 20 ng of RNA encoding each receptor subunit. NR1A encoding cRNA was injected alone at ~20 ng. Oocytes were stored in Barth's medium containing (in mM):NaCl, 88; KCl, 1; CaCl2, 0.41; Ca(NO3)2, 0.33; MgSO4, 0.82 NaHCO3, 2.4; HEPES 5, pH 7.4, with 0.1 mg/ml gentamicin sulphate. While oocytes were still surrounded by enveloping ovarian tissues the Barth's medium was supplemented with 0.1% bovine serum. Oocytes were defolliculated 1-2 days following injections by treatment with collagenase (0.5 mg/ml Sigma Type I for 0.5-1 hr) (Miledi and Woodward, J. Physiol. (Lond.) 416:601-621 (1989)) and subsequently stored in serum-free medium.
(§5) Electrical recordings were made using a conventional two-electrode voltage clamp (Dagan TEV-200) over periods ranging between 3-21 days following injection. (Woodward et al., Mol. Pharmacol. 41: 89-103 (1992)). Oocytes were placed in a 0.1 ml recording chamber continuously perfused (5-15 ml min^-1 ) with frog Ringer's solution containing (in mM):NaCl, 115; KCl, 2; CaCl2, 1.8; HEPES, 5; pH 7.4. Drugs were applied by bath perfusion. Using oocytes expressing different subunit combinations of NMDA receptor, NMDA currents were activated by co-application of glutamate (100 μm) and glycine (1-100 μm). Inhibitory potency of the novel antagonists was assessed on responses elicited by fixed concentrations of glutamate and glycine, by measuring reductions in current induced by progressively increasing concentrations of antagonist. Concentration-inhibition curves were fit with equation 1.
(§6) I/Icontrol =1/(1+([antagonist]/10^-pIC50)^n) Eq. 1
(§7) in which Icontrol is the current evoked by agonists alone, pIC50 =-log IC50, IC50 is the concentration of antagonist that produces half maximal inhibition, and n is the slope factor. (De Lean et al., Am. J. Physiol. 235:E97-102 (1978)). […]

Assay [2] has as its target T2, NMDA receptor subunits 1A/2B (Rattus norvegicus, UniProt P35439+Q00960).
T2 construct: expressed in transfected cells; host or cells: Xenopus laevis oocytes (cRNA injection; clones from Dr. P. H. Seeburg)
Description: Electrophysiological assay at NMDA receptor subunits expressed in Xenopus oocytes, 1A/2B. To be noted: Xenopus oocytes; glutamate 100 μm and glycine 1-100 μm; read-out: Subunits IC50, 1A/2B. The protocol: as §1, §2, §3, §4, §5, §6, §7

The target of assay [3] is T3, NMDA receptor subunits 1A/2C (Rattus norvegicus, UniProt P35439+Q00961).
T3 construct: expressed in transfected cells; host or cells: Xenopus laevis oocytes (cRNA injection; clones from Dr. P. H. Seeburg)
T3 sequence (Q00961 20-1237, other chains not shown): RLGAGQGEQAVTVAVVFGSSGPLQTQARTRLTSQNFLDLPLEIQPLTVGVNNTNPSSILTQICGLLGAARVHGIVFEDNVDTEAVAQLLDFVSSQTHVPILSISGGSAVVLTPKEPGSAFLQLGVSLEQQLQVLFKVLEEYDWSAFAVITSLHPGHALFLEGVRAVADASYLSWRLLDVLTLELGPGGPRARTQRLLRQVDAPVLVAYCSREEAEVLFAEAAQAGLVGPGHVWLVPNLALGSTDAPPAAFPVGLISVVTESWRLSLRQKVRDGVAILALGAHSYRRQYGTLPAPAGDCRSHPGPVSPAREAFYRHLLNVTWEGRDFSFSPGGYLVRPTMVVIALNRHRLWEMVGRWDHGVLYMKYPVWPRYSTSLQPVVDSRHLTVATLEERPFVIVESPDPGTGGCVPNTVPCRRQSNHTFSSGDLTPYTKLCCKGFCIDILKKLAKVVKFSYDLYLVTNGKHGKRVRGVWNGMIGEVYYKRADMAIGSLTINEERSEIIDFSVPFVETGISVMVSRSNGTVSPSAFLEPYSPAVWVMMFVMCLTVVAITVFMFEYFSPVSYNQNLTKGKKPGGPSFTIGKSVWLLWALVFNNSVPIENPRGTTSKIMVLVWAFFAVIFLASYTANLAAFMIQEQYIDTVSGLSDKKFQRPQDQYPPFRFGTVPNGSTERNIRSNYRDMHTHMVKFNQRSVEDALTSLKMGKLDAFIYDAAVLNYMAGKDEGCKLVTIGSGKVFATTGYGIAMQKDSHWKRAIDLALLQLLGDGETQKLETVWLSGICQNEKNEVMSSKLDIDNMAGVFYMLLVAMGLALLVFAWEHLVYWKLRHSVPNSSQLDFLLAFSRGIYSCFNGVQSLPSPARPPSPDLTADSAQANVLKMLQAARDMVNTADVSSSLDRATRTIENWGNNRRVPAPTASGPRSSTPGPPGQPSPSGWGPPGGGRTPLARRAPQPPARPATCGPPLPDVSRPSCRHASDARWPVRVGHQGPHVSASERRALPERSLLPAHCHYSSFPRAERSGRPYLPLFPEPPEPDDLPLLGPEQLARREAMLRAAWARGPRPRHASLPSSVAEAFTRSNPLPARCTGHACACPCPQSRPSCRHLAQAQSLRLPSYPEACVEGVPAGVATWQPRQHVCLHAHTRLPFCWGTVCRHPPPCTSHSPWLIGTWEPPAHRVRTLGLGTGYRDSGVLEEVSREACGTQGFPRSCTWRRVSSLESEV
Description: Electrophysiological assay at NMDA receptor subunits expressed in Xenopus oocytes, 1A/2C. To be noted: Xenopus oocytes; glutamate 100 μm and glycine 1-100 μm; read-out: Subunits IC50, 1A/2C. The protocol: as §1, §2, §3, §4, §5, §6, §7

T1 sequence (Q00959 20-1464 limits assumed, other chains not shown): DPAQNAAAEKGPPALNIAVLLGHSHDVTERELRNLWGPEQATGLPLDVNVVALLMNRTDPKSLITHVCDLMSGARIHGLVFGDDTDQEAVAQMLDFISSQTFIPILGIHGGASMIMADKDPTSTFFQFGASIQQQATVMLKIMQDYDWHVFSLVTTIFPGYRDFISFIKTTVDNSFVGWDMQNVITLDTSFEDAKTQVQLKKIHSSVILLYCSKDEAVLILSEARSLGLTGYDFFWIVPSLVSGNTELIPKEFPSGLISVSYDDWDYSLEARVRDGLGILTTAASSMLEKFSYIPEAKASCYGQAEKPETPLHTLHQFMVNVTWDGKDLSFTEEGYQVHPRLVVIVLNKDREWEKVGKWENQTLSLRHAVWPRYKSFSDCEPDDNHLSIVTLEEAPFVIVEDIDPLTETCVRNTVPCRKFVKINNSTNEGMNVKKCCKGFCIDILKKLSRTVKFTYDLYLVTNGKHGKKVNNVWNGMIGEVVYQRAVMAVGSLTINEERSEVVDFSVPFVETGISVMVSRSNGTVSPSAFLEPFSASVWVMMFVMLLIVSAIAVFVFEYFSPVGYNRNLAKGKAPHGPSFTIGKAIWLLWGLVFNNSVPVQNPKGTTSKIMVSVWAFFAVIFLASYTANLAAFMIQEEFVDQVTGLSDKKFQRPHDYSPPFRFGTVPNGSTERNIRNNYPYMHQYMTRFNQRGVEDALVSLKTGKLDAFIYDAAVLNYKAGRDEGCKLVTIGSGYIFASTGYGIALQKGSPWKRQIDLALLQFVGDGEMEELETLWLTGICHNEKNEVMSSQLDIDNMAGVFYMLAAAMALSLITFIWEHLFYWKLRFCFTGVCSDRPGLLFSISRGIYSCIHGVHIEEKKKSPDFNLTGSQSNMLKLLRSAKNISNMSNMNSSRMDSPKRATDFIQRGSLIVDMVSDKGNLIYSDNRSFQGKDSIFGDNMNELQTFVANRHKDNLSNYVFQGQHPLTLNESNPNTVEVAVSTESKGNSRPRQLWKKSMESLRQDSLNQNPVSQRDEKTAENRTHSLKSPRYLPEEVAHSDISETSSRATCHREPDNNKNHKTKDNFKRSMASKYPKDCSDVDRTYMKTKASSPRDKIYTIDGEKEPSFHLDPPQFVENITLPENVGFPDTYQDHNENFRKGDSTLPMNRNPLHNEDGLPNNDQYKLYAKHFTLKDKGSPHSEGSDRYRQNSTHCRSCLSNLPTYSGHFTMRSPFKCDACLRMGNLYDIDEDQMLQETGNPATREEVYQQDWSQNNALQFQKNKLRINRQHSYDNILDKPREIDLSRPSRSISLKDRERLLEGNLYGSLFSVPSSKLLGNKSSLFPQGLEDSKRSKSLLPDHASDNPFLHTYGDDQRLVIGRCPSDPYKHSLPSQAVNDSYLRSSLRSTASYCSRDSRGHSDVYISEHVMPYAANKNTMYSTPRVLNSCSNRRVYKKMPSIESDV
T2 sequence (Q00960 27-1482, other chains not shown): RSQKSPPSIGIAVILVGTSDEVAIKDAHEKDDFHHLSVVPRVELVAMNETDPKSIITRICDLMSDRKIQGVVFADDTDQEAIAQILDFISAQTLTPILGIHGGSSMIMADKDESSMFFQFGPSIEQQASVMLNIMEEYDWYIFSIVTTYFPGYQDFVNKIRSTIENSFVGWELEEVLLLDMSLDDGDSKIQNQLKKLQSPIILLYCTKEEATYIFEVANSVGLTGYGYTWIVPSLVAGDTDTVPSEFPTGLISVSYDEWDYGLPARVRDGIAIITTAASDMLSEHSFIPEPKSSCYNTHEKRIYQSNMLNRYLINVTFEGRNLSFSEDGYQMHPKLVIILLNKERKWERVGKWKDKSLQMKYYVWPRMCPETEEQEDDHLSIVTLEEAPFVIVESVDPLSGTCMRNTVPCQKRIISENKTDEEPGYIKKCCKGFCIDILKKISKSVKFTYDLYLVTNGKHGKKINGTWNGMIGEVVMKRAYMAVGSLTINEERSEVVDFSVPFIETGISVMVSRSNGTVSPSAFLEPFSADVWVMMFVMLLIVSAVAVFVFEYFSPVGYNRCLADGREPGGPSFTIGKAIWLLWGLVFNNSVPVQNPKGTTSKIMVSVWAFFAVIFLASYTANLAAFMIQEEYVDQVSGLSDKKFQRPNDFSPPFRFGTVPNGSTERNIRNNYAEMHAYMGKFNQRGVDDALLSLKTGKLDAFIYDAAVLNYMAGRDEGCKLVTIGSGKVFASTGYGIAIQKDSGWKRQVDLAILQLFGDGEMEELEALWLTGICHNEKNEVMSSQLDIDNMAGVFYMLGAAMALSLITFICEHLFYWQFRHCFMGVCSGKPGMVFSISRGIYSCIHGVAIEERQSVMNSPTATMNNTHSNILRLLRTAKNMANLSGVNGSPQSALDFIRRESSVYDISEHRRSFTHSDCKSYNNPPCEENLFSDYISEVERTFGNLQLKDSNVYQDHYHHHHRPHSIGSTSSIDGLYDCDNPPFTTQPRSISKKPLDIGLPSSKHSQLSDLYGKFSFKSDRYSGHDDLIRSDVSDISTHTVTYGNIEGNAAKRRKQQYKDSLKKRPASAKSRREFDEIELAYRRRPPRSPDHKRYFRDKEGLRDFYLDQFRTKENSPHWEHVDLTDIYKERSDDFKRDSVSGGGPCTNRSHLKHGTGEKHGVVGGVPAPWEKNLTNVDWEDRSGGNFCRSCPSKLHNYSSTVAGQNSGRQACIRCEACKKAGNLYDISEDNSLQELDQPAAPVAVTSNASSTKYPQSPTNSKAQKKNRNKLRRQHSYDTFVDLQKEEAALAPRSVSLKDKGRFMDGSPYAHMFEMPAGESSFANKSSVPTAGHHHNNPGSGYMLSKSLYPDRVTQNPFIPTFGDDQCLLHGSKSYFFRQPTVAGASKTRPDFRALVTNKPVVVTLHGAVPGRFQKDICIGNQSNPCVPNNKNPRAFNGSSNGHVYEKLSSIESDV

For `CC(COc1ccccc1)N1CCC(Cc2ccccc2)CC1` (stereo not drawn) [Ex. 21, 4-Benzyl-1-(1-methyl-2-phenoxyethyl)piperidine hydrobromide], the results for the IC50 in assay [1], in assay [2] and in assay [3] were 45 µM, 2.5 µM and > 100 µM, respectively.

Turning to `O=[N+]([O-])c1ccc(CC2CCN(CCOc3ccc(F)cc3)CC2)cc1` [Ex. 36, 1-(2-(4-Fluorophenoxy)ethyl)-4-(4-nitrobenzyl)piperidine hydrobromide], the IC50 was 40 µM in assay [1], 22 µM in assay [2] and > 100 µM in assay [3].

Turning to `O=[N+]([O-])c1ccc(CC2CCN(CCCOc3ccccc3)CC2)cc1` [Ex. 37, 4-(4-Nitrobenzyl)-1-(3-phenoxypropyl)piperidine hydrobromide], the IC50 in assay [1] was 14 µM; in assay [2], 10 µM; in assay [3], > 100 µM.

On to `CC(CCOc1ccccc1)N1CCC(Cc2ccccc2)CC1` (stereo not drawn) [Ex. 41, 4-Benzyl-1-(1-methyl-3-phenoxypropyl)piperidine hydrochloride], for which the IC50 in assay [1] is 90 µM; in assay [2], 5 µM; in assay [3] it was > 100 µM.

With `c1ccc(CC2CCN(CCOc3ccc4ncccc4c3)CC2)cc1` [Ex. 50], the IC50 was 75 µM in assay [1], 5 µM in assay [2] and > 100 µM in assay [3].

In the case of `c1ccc(CC2CCN(CCOc3cccc4cccnc34)CC2)cc1` [Ex. 51, 4-Benzyl-1-[2-(8-quinolinoxy)ethyl]piperidine], the IC50 in assay [1] was 80 µM; in assay [2], 5 µM; in assay [3] it was > 100 µM.

As for `Nc1c(OCCN2CCC(Cc3ccccc3)CC2)cccc1[N+](=O)[O-]` [Ex. 52, 4-Benzyl-1-[2-(2-amino-3-nitrophenoxy)ethyl]piperidine], the IC50 in assay [1] is 60 µM; in assay [2] it was 9.5 µM; in assay [3], > 100 µM.

Consider `O=c1[nH]c2cccc(OCCN3CCC(Cc4ccccc4)CC3)c2[nH]c1=O` [Ex. 54, 4-Benzyl-1-[2-(2,3-dioxoquinoxalin-5-oxy)ethyl]piperidine], for which the IC50 in assay [1] was 60 µM; in assay [2] it was 3.6 µM; in assay [3], > 100 µM.

For `Nc1ccc(OCCN2CCC(Cc3ccccc3)CC2)cc1[N+](=O)[O-]` [Ex. 56, 4-Benzyl-1-[2-(4-amino-3-nitrophenoxy)ethyl]piperidine], the IC50 was 90 µM in assay [1], 1.1 µM in assay [2] and > 100 µM in assay [3].

For `O=[N+]([O-])c1cccc(OCCN2CCC(Cc3ccccc3)CC2)c1` [Ex. 62, 4-Benzyl-1-[2-(3-nitrophenoxy)ethyl]piperidine], the IC50 in assay [1] was 80 µM; in assay [2] it was 6 µM; in assay [3], > 100 µM.

For the compound `COc1cccc(OCCN2CCC(Cc3ccccc3)CC2)c1` [Ex. 69, 4-Benzyl-1-[2-(3-methoxyphenoxy)ethyl]piperidine], the IC50 was 20 µM in assay [1], 0.43 µM in assay [2] and > 100 µM in assay [3].

In the case of `O=c1[nH]c2ccc(OCCN3CCC(Cc4ccc(Cl)cc4)CC3)cc2[nH]1` [Ex. 80, 4-(4-Chlorobenzyl)-1-[2-(2-oxobenzimidazol-5-oxy)ethyl]piperidine], the IC50 in assay [1] turned out to be 16 µM; in assay [2], 0.025 µM; in assay [3], 70 µM.

Take `c1ccc(COc2ccc(OCCN3CCC(Cc4ccccc4)CC3)cc2)cc1` [Ex. 98, 1-[2-(4-Benzyloxyphenoxy)ethyl]-4-benzylpiperidine hydrochloride]: the IC50 came to 80 µM in assay [1], 100 µM in assay [2] and 80 µM in assay [3].

As to `Oc1ccc(CCCN2CCC(Cc3ccccc3)CC2)cc1` [Ex. 106, 1-[3-(4-Hydroxyphenyl)propyl]-4-benzylpiperidine hydrochloride], the results for the IC50 in assay [1], in assay [2] and in assay [3] were 90 µM, 0.02 µM and 260 µM, respectively.

On to `Oc1ccc(CCCN2CCC(Cc3ccc(Cl)cc3)CC2)cc1` [Ex. 107, 1-[3-(4-Hydroxyphenyl)propyl]-4-(4-chlorobenzyl)piperidine hydrochloride], for which the figures for the IC50 in assay [1], in assay [2] and in assay [3] were 60 µM, 0.03 µM and 270 µM, respectively.

Take `Oc1ccc(CCN2CCC(Cc3ccccc3)CC2)cc1` [Ex. 108, 1-[2-(4-Hydroxyphenyl)ethyl]-4-benzylpiperidine hydrochloride]: the IC50 was 62 µM in assay [1], 0.25 µM in assay [2] and > 300 µM in assay [3].

As to `Fc1ccc(OCCN2CCC(Cc3cccc(F)c3)CC2)cc1` [Ex. 113, 4-(3-Fluorobenzyl)-1-(2-(4-fluorophenoxy)ethyl)piperidine hydrochloride], the IC50 in assay [1] stood at 200 µM; in assay [2], 30 µM; in assay [3], 200 µM.

In the case of `Oc1ccc(OCCN2CCC(c3ccccc3)CC2)cc1` [Ex. 127, 1-[2-(4-Hydroxyphenoxy)ethyl]-4-phenylpiperidine hydrochloride], the IC50 in assay [1] was 70 µM; in assay [2], 5 µM; in assay [3] it was > 300 µM.

Take `c1ccc(CC2CCN(CCSc3ccccc3)CC2)cc1` [Ex. 144, 4-Benzyl-1-(2-thiophenoxyethyl)piperidine hydrochloride]: the IC50 is > 300 µM in assay [1], 1.6 µM in assay [2] and > 300 µM in assay [3].

As to `c1ccc(CC2CCN(CCOc3ccc4c(c3)OCO4)CC2)cc1` [Ex. 148, 1-[2-(3,4-Methylenedioxyphenoxy)ethyl]-4-benzylpiperidine hydrochloride], the results for the IC50 in assay [1], in assay [2] and in assay [3] were 105 µM, 3.8 µM and 135 µM, respectively.

On to `Cc1cc(OCCN2CCC(Cc3ccc(F)cc3)CC2)ccc1O` [Ex. 152, 1-[2-(4-Hydroxy-3-methylphenoxy)ethyl]-4-(4-fluorobenzyl)piperidine hydrochloride], for which the IC50 in assay [1] worked out at 90 µM; in assay [2], 0.04 µM; in assay [3] it was 200 µM.

As for `Cc1ccc(CC2CCN(CCOc3ccc(O)c(C)c3)CC2)cc1` [Ex. 153, 1-[2-(4-Hydroxy-3-methylphenoxy)ethyl]-4-(4-methylbenzyl)piperidine hydrochloride], the IC50 in assay [1] turned out to be 65 µM; in assay [2] it was 0.04 µM; in assay [3], 70 µM.

Consider `Cc1ccc(CC2(O)CCN(CCOc3ccc(O)c(C)c3)CC2)cc1` [Ex. 155, 1-[2-(4-hydroxy-3-methylphenoxy)ethyl]-4-hydroxy-4-(4-methylbenzyl)piperidine hydrochloride], for which the IC50 is 170 µM in assay [1], 0.03 µM in assay [2] and > 300 µM in assay [3].

For `Oc1cccc(OCCN2CCC(Cc3ccc(F)cc3)CC2)c1` [Ex. 159, 4-(4-Fluorobenzyl)-1-[2-(3-Hydroxyphenoxy)ethyl]piperidine hydrochloride], the IC50 in assay [1] came to 130 µM; in assay [2], 0.5 µM; in assay [3] it was 140 µM.
